# Experimental data: patent US8093288B2, “Genipin derivatives and uses thereof” (Beth Israel Deaconess Medical Center, priority 2003, dated 2012)
# How the values were obtained:
# UCP2 = target: T1, UCP2 (Mus musculus, UniProt P70406); experiment: Proton leak titration in isolated kidney mitochondria of wildtype mice with superoxide-generating system; format: biochemical; conditions: 50 μM genipin with 50 mM xanthine and 0.2 mU/3.5 mL xanthine oxidase, FIG. 2
# T1 construct: Wildtype and UCP2 knockout mice were used for isolation of kidney mitochondria; from tissue; host or cells: kidney mitochondria of wildtype mice
# T1 sequence (P70406 1-309): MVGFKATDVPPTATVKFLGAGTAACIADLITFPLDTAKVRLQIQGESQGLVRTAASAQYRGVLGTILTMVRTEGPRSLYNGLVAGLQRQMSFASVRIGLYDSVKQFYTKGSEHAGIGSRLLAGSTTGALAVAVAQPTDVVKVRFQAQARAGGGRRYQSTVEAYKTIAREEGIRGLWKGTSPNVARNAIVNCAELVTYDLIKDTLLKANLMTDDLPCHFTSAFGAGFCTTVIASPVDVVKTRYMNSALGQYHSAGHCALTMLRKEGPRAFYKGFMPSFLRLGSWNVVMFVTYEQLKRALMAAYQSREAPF
# [1] = test system: kidney mitochondria of UCP2 knockout mice; experiment: Proton leak titration in isolated kidney mitochondria of UCP2 knockout mice with superoxide-generating system; format: biochemical; conditions: 50 μM genipin with 50 mM xanthine and 0.2 mU/3.5 mL xanthine oxidase, FIG. 3
# Method: FIG. 3 is a graph showing the effect of genipin on superoxide-activated, UCP2-dependent proton leak in isolated kidney mitochondria of UCP2 knockout mice. Proton leak titration was performed in the presence of a superoxide-generating system (xanthine plus xanthine oxidase) essentially as described (Echtay et al. 2002, Nature 415, 96-99). Graphs show the rate of proton leak as a function of its driving force, mitochondrial membrane potential. ♦, control; ▪, xanthine (50 mM) plus xanthine oxidase (0.2mU/3.5 ml). Δ, xanthine/xanthine oxidase plus 50 μM genipin. Mitochondria were incubated with genipin in the oxygen electrode for 5 minutes before xanthine oxidase was added (to initiate the generation of superoxide). Western-blot analysis confirmed that there was no UCP2 protein in mitochondria from UCP2 knockout mice. Data are means +/−S.E.M. of four independent experiments.
# Wildtype and UCP2 knockout mice were used for isolation of kidney mitochondria. Fresh tissues were minced in ice-cold STE buffer (250 mM sucrose, 5 mM Tris, 2 mM EGTA, pH 7.4 at 4° C.), and disrupted in a Dounce homogenizer. Cell debris was removed by centrifugation of the homogenate at 500×g for 3 min. The supernatant was centrifuged at 10,000×g for 8 min., and the mitochondrial pellet was resuspended in ice-cold STE buffer. Mitochondria were subjected to another cycle of centrifugation at 750 and 10,000×g. […]
# [2] = test system: high fat diet-fed UCP2 knockout mice; experiment: Blood glucose and insulin after genipin injection in high fat diet-fed UCP2 knockout mice; format: in vivo; conditions: high fat diet 24 weeks, 20 hours fasting, 300 μg genipin injected, thirty minutes after injection
# Method: Wildtype and UCP2 knockout mice were placed on a high fat diet obtained from Research Diets Inc., New Brunswick, N.J. (cat. no. D12331, HFD). The fat source was coconut oil and comprised 58% of the total calories. The mice remained on the high fat diet for 24 weeks. After the 24 weeks, both the wildtype and the UCP2 knockout mice were obese (about 50-60 g). After 20 hours of fasting, the blood glucose and insulin levels of the mice were measured, then the mice were injected with 300 μg of genipin. Thirty minutes after injection the blood glucose and insulin levels of the mice were measured again. Blood glucose levels were assessed using a glucometer (One touch, Lifescan, Milpitas, Calif.). Serum insulin concentrations were assessed using mouse insulin as a standard (Rat Insulin ELISA Kit. cat. #INSKR020 Crystal Chem. Inc., Chicago, Ill.). […] A comparison of the effect of genipin on the blood glucose levels and insulin levels in wildtype and UCP2 knockout mice can be seen in FIGS. 7 and 10, respectively.
# UCP2 KO islets = experiment: Glucose-stimulated insulin secretion in UCP2 KO islets after chronic hyperglycemia; format: cell-based, mice; conditions: UCP2 KO islets after 72 hours at 25 mM glucose; 5 μM genipin; FIG. 12B
# Method: Pancreatic islets were isolated from WT (FIG. 12A) or UCP2 KO mice (FIG. 12B) and subjected to chronic incubations at low (5.5 mM) and high glucose (25 mM). In a separate experiment, islets were isolated from ob/ob mice (FIG. 12C). Islets were incubated for a total of 72 hours and washed, and then insulin-secretion studies were performed using three different concentrations of glucose (5.5, 12.5, and 25 mM) with or without 5 μM genipin. Results are means±SEM of four independent experiments (FIGS. 12A and 12B) or eight to twenty repeats of one representative experiment (FIG. 12C). WT islets that were chronically incubated at low glucose released increasing amounts of insulin in response to increasing concentrations of glucose (FIG. 12A, left panel). Following chronic hyperglycemia, islets increased basal insulin release, but were completely unresponsive to glucose stimulation (FIG. 12A, middle panel). […] To assess the role of genipin in hyperglycemia-induced loss of glucose responsiveness, genipin was acutely added into islets during the insulin-release phase of the study. […] To see whether this effect of genipin is mediated by UCP2, islets were isolated from UCP2 KO mice and then incubated in chronic hyperglycemia. […]
compound,measurement,setting,value
COC(=O)C1=CO[C@@H](O)[C@@H]2C(CO)=CC[C@H]12 [genipin],rate of proton leak as a function of mitochondrial membrane potential,UCP2,proton leak occurred at nearly the same mitochondria membrane potential as in the control
same,rate of proton leak as a function of mitochondrial membrane potential,[1],proton leak occurred at approximately the same membrane potential as that observed for kidney mitochondria from UCP2 knockout mice exposed to the superoxide-generating system alone
same,blood glucose levels,[2]; FIG. 6,little effect
same,insulin levels,[2]; FIG. 9,little effect
same,glucose-stimulated insulin secretion (GSIS),UCP2 KO islets,no additional beneficial effect on GSIS
